From ChEMBL document CHEMBL6134873, “Identification of Novel Cyclobutane-Based Derivatives as Potent Acetyl-CoA Carboxylase Allosteric Inhibitors for Nonalcoholic Steatohepatitis Drug Discovery” (J Med Chem, 2025)
Each block holds one compound with its values, some of them ahead of it.

What was measured:
Acetyl-CoA carboxylase 1 = Acetyl-CoA carboxylase 1 (Homo sapiens, UniProt Q13085)
Description: Inhibition of recombinant human ACC1 using acetyl-Co A as substrate incubated for 60 mins in presence of ATP by ADP-Glo assay

Acetyl-CoA carboxylase 2 = Acetyl-CoA carboxylase 2 (Homo sapiens, UniProt O00763)
Description: Inhibition of recombinant human ACC2 using acetyl-Co A as substrate incubated for 60 mins in presence of ATP by ADP-Glo assay

[1] = Inhibition of ACC2 in rat skeletal muscle using KH[14C]O3 as substrate measured after 7 mins in presence of ATP by liquid scintillation counter analysis
Cytochrome P450 2C8 = molecular target: T1, Cytochrome P450 2C8 (Homo sapiens, UniProt P10632); assay: Inhibition of CYP2C8 (unknown origin); assay type: ADME
T1 sequence (P10632 whole entry): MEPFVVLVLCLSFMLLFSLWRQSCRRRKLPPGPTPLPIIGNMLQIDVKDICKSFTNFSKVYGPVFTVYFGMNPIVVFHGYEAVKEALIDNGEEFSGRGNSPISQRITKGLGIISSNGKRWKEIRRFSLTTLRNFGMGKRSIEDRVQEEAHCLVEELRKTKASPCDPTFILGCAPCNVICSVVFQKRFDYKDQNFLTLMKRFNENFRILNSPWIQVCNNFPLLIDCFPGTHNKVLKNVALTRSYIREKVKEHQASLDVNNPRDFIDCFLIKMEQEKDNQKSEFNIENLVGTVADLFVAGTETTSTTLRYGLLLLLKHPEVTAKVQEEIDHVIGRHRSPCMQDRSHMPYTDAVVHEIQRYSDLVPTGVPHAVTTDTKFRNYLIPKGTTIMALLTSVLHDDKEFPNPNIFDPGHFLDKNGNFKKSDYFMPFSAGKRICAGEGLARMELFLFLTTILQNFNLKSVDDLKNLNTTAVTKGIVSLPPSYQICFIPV

Cytochrome P450 1A2 = molecular target: T2, Cytochrome P450 1A2 (Homo sapiens, UniProt P05177); assay: Inhibition of CYP1A2 (unknown origin); assay type: ADME
T2 sequence (P05177 whole entry): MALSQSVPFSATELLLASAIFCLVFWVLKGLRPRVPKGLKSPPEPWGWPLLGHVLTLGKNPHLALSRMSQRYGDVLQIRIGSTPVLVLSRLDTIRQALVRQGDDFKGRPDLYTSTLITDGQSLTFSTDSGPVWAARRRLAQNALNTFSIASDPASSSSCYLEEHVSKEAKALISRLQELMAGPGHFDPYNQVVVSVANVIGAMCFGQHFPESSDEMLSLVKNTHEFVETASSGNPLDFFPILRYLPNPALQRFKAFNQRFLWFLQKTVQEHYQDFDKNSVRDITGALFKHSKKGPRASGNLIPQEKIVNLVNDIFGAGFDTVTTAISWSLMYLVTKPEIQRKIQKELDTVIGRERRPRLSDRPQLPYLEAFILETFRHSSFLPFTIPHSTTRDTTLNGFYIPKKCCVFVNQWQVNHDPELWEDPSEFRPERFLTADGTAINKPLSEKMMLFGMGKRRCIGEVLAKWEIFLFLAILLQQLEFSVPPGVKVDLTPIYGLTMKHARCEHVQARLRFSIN

[2] = MRT (0 to t) in Sprague-Dawley rat at 3 mg/kg, po measured for 0.25 to 24 hrs by LC-MS/MS analysis; assay type: ADME, organism-based; conditions: in vivo, time 0.25-24 hrs
Cytochrome P450 2C19 = Cytochrome P450 2C19 (Homo sapiens, UniProt P33261); assay: Inhibition of CYP2C19 (unknown origin); assay type: ADME
[3] = Intrinsic clearance in dog liver microsomes; assay type: ADME, Canis lupus familiaris, Microsome; conditions: read-out: CLH
[4] = Intrinsic clearance in mouse liver microsomes; assay type: ADME, Microsome; conditions: read-out: CLH
[5] = Intrinsic clearance in human liver microsomes; assay type: ADME, Microsome; conditions: read-out: CLH
[6] = Clearance in Sprague-Dawley rat at 1 mg/kg, iv measured for 0.25 to 24 hrs by LC-MS/MS analysis; assay type: ADME, organism-based; conditions: in vivo, time 0.25-24 hrs
[7] = Intrinsic clearance in rat liver microsomes; assay type: ADME, Microsome; conditions: read-out: CLH
[8] = Half life in Sprague-Dawley rat at 1 mg/kg, iv measured for 0.25 to 24 hrs by LC-MS/MS analysis; assay type: ADME, organism-based; conditions: in vivo, time 0.25-24 hrs
[9] = Protein binding in rat plasma; assay type: ADME, cell-free; conditions: read-out: PPB (converted)
Cytochrome P450 2B6 = molecular target: T3, Cytochrome P450 2B6 (Homo sapiens, UniProt P20813); assay: Inhibition of CYP2B6 (unknown origin); assay type: ADME
T3 sequence (P20813 whole entry): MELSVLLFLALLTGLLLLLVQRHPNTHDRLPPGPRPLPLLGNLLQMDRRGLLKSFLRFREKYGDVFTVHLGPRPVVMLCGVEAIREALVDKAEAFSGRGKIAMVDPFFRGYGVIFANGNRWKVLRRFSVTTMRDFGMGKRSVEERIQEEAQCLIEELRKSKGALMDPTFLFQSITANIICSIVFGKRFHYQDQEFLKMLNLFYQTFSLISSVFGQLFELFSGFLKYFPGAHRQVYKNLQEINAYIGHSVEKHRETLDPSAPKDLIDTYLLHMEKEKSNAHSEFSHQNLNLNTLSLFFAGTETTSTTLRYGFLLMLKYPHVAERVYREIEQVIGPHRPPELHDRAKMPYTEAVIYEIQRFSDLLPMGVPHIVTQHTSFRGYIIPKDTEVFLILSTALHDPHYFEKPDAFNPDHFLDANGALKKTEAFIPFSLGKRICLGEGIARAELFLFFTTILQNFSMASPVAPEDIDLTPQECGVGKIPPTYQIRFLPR

Cytochrome P450 2D6 = Cytochrome P450 2D6 (Homo sapiens, UniProt P10635); assay: Inhibition of CYP2D6 (unknown origin); assay type: ADME
Sequence of Cytochrome P450 2D6 (P10635 whole entry): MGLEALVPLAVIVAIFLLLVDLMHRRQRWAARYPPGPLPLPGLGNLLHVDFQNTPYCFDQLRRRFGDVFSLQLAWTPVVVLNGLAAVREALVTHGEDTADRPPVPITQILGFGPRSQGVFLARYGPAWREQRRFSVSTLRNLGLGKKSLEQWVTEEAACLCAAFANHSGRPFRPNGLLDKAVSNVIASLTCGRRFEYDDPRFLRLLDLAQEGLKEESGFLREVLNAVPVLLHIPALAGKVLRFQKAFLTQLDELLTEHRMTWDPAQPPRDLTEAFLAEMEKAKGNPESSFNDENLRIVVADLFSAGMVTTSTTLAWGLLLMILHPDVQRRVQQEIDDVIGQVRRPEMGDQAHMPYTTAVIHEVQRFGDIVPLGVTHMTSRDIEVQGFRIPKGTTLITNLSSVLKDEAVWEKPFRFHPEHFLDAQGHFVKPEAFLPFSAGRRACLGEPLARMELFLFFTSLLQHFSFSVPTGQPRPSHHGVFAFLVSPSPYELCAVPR

[10] = MRT (0 to t) in Sprague-Dawley rat at 1 mg/kg, iv measured for 0.25 to 24 hrs by LC-MS/MS analysis; assay type: ADME, organism-based; conditions: in vivo, time 0.25-24 hrs
[11] = Cmax in Sprague-Dawley rat at 3 mg/kg, po measured for 0.25 to 24 hrs by LC-MS/MS analysis; assay type: ADME, organism-based; conditions: in vivo, time 0.25-24 hrs
[12] = molecular target: Voltage-gated inwardly rectifying potassium channel KCNH2 (Homo sapiens, UniProt Q12809); assay: Inhibition of hERG; assay type: toxicity
Sequence of Voltage-gated inwardly rectifying potassium channel KCNH2 (Q12809 whole entry): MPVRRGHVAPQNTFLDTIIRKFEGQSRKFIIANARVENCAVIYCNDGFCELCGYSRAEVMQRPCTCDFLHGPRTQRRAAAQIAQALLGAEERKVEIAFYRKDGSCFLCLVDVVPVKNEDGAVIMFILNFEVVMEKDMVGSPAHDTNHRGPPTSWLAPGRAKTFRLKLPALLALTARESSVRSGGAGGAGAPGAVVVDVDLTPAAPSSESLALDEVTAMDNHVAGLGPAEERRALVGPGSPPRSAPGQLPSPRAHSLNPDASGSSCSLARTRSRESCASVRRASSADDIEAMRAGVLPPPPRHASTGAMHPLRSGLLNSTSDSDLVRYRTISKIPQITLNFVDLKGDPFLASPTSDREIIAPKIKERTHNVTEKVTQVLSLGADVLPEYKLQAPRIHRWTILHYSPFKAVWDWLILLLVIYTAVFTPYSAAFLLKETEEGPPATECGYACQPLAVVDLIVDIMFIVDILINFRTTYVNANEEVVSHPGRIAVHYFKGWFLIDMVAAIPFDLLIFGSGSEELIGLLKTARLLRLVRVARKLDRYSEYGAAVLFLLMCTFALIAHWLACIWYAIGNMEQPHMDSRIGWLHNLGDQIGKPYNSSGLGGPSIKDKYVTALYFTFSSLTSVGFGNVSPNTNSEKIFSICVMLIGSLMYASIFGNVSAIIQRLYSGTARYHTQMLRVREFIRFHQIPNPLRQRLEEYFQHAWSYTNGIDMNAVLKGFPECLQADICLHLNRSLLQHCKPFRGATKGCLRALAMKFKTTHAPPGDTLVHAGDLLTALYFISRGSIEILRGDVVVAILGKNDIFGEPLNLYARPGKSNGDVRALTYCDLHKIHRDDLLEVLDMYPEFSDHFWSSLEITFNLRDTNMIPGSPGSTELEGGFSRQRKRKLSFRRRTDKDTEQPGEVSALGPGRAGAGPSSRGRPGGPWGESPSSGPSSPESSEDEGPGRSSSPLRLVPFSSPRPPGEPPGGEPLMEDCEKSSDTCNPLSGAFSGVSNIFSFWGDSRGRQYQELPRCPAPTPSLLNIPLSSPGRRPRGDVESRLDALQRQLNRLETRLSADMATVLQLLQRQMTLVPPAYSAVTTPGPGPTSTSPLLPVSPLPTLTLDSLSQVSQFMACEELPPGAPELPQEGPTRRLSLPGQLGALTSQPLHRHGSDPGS

[13] = Oral bioavailability in Sprague-Dawley rat at 3 mg/kg measured for 0.25 to 24 hrs by LC-MS/MS analysis; assay type: ADME, organism-based; conditions: in vivo, time 0.25-24 hrs
[14] = Intrinsic clearance in monkey liver microsomes; assay type: ADME, Macaca mulatta, Microsome; conditions: rhesus monkey, read-out: CLH
[15] = Tmax in Sprague-Dawley rat at 3 mg/kg, po measured for 0.25 to 24 hrs by LC-MS/MS analysis; assay type: ADME, organism-based; conditions: in vivo, time 0.25-24 hrs
[16] = AUC (0 to t) in Sprague-Dawley rat at 1 mg/kg, iv measured for 0.25 to 24 hrs by LC-MS/MS analysis; assay type: ADME, organism-based; conditions: in vivo, time 0.25-24 hrs
Cytochrome P450 2C9 = Cytochrome P450 2C9 (Homo sapiens, UniProt P11712); assay: Inhibition of CYP2C9 (unknown origin); assay type: ADME
Sequence of Cytochrome P450 2C9 (P11712 whole entry): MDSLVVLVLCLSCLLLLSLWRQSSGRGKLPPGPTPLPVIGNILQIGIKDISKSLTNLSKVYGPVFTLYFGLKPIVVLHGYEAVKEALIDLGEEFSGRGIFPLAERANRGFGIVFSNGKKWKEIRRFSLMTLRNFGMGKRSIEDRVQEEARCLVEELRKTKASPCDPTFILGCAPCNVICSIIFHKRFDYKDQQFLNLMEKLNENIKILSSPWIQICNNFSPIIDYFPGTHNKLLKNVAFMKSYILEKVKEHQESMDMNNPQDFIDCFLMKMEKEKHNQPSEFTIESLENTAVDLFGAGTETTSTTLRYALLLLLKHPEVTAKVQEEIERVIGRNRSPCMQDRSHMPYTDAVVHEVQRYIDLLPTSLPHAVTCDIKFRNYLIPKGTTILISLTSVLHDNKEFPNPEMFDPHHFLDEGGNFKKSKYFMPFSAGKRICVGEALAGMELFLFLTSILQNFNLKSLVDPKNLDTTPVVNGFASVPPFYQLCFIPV

[17] = Volume of distribution in Sprague-Dawley rat at 1 mg/kg, iv measured for 0.25 to 24 hrs by LC-MS/MS analysis; assay type: ADME, organism-based; conditions: in vivo, time 0.25-24 hrs
[18] = Biodistribution in liver of 12 hr-fasted male wild-type Sprague-Dawley rat at 3 mg/kg, po measured after 4 hrs by LC-MS/MS analysis; assay type: ADME, organism-based; conditions: in vivo
Cytochrome P450 3A4 [19] = molecular target: T4, Cytochrome P450 3A4 (Homo sapiens, UniProt P08684); assay: Inhibition of CYP3A4 (unknown origin) using midazolam as substrate; assay type: ADME
T4 sequence (P08684 whole entry): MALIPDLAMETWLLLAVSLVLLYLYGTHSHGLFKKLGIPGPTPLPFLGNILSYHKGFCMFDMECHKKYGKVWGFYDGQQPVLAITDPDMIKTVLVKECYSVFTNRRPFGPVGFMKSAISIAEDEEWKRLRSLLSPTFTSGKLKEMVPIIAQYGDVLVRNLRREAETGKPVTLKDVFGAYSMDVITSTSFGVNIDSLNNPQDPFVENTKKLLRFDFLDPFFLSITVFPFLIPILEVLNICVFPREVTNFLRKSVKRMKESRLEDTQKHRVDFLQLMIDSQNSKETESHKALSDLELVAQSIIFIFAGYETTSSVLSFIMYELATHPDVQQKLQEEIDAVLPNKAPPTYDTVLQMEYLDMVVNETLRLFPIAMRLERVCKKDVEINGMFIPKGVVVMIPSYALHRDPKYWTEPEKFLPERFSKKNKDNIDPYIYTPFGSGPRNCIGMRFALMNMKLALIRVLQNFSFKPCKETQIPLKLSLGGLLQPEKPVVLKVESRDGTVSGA

[20] = Inhibition of fatty acid synthesis in human HepG2 cells preincubated for 1.5 hrs followed by [14C] acetate addition measured after 1.5 hrs by liquid scintillation counter analysis; assay type: functional, cell-based
[21] = AUC (0 to t) in Sprague-Dawley rat at 3 mg/kg, po measured for 0.25 to 24 hrs by LC-MS/MS analysis; assay type: ADME, organism-based; conditions: in vivo, time 0.25-24 hrs
[22] = Biodistribution in 12 hr-fasted male wild-type Sprague-Dawley rat assessed as increase in ratio of drug concentration in liver/plasma at 3 mg/kg, po measured for 0.25 to 4 hrs by LC-MS/MS analysis; assay type: ADME, organism-based; conditions: in vivo, time 0.25-4 hrs
[23] = Protein binding in human plasma; assay type: ADME, cell-free; conditions: read-out: PPB (converted)
Cytochrome P450 3A4 [24] = molecular target: T4, Cytochrome P450 3A4; assay: Inhibition of CYP3A4 (unknown origin) using testosterone as substrate; assay type: ADME
[25] = Half life in Sprague-Dawley rat at 3 mg/kg, po measured for 0.25 to 24 hrs by LC-MS/MS analysis; assay type: ADME, organism-based; conditions: in vivo, time 0.25-24 hrs

Sequence of Acetyl-CoA carboxylase 2 (O00763 whole entry): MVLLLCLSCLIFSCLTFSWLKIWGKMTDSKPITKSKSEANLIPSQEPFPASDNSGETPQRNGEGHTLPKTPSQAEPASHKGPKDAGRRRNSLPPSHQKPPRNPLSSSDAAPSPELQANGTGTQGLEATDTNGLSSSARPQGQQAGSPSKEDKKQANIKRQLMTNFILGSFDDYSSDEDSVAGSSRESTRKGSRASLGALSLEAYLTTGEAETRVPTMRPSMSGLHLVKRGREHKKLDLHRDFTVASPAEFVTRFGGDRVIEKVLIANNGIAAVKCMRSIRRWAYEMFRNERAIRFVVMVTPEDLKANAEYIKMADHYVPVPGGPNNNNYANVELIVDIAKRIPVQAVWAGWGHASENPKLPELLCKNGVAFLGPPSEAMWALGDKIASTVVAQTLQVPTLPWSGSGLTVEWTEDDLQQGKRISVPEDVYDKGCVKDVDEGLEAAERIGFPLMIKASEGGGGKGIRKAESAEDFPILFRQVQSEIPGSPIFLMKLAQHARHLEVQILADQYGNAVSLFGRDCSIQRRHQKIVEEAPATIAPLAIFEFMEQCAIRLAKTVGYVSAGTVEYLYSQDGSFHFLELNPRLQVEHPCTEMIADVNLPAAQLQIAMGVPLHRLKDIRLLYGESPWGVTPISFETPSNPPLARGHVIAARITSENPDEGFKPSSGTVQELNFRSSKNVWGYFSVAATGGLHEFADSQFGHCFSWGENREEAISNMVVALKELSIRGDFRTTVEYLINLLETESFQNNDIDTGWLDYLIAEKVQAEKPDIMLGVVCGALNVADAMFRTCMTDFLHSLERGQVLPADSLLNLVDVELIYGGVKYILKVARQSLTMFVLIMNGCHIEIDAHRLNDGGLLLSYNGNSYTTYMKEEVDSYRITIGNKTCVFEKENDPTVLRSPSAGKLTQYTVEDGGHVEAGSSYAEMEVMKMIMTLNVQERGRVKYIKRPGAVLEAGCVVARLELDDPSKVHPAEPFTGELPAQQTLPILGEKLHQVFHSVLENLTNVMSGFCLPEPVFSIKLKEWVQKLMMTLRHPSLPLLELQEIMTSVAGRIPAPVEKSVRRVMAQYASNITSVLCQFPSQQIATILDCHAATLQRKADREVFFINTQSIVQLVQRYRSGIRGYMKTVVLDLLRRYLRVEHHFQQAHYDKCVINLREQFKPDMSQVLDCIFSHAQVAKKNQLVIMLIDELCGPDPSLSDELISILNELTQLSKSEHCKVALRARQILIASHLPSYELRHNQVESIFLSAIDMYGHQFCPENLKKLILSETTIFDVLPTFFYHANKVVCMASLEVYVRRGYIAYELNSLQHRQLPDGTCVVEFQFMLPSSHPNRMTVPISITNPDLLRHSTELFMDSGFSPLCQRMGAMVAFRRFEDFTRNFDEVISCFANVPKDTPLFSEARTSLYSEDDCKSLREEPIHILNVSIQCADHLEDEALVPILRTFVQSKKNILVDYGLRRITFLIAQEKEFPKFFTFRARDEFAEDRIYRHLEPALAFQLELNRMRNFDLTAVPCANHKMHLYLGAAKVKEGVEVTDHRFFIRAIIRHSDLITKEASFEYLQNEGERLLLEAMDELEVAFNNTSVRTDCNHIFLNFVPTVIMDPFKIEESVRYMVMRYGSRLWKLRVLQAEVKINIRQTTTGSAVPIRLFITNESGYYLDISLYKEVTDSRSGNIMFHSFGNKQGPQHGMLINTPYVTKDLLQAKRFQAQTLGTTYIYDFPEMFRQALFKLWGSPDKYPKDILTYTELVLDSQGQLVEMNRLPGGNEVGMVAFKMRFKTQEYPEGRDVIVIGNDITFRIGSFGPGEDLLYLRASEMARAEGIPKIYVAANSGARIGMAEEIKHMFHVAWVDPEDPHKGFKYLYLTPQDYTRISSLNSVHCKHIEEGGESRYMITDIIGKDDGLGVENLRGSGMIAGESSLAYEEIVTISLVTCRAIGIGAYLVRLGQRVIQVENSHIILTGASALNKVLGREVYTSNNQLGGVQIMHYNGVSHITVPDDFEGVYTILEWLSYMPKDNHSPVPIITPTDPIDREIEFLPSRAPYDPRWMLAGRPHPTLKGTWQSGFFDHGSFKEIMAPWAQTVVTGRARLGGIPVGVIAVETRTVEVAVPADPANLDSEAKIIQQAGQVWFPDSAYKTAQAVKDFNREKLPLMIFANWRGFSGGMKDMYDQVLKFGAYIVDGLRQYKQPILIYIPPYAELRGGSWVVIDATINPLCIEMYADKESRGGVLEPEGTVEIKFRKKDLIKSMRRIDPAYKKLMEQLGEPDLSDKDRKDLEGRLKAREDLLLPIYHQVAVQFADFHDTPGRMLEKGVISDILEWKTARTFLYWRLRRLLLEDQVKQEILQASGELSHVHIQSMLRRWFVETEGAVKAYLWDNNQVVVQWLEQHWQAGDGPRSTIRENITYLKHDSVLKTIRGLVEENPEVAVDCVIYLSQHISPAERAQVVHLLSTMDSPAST

SMILES: COc1ccccc1[C@H](Cn1c(=O)n(C2CN(C(=O)N3CC(C)(C(=O)O)C3)C2)c(=O)c2c(C)c(-c3ncco3)sc21)OC1CCOCC1
IC50 (Acetyl-CoA carboxylase 1): 12.1 nM

SMILES: COc1ccccc1[C@H](Cn1c(=O)n(C2CC(F)(F)C2)c(=O)c2c(C)c(-c3ncco3)sc21)OC1CCOCC1
IC50 (Acetyl-CoA carboxylase 1): 9.42 nM

SMILES: COc1ccccc1[C@H](Cn1c(=O)n(CC2(C(=O)O)CC2)c(=O)c2c(C)c(-c3ncco3)sc21)OC1CCOCC1
IC50 (Acetyl-CoA carboxylase 1): 0.85 nM

SMILES: COc1ccccc1[C@H](Cn1c(=O)n(C2CN(C(=O)c3ncc[nH]3)C2)c(=O)c2c(C)c(-c3ncco3)sc21)OC1CCOCC1
IC50 (Acetyl-CoA carboxylase 1): 1.52 nM
IC50 (Acetyl-CoA carboxylase 2): 6.18 nM

SMILES: O=C(c1c2ccccc2cc2ccccc12)N1CCC(N2CCC[C@@H](C(=O)N3CCOCC3)C2)CC1
IC50 [1]: 61 nM

SMILES: COc1ccccc1[C@H](Cn1c(=O)n([C@H]2C[C@@H](C(=O)O)C2)c(=O)c2c(C)c(-c3ncco3)sc21)OC1CCOCC1
MRT last [2]: 24 min
IC50 (Acetyl-CoA carboxylase 1): 0.79 nM
clearance [6]: 180 mL/min/kg
half-life [25]: 24 min
half-life [8]: 12 min
IC50 (Acetyl-CoA carboxylase 2): 5.13 nM
MRT last [10]: 6 min
Cmax [11]: 21.3 ng/mL
bioavailability [13]: 5.7%
Tmax [15]: 36 min
AUC(0-t) [16]: 80.8 ng·h/mL
Vd [17]: 2.6 L/kg
AUC(0-t) [21]: 13.8 ng·h/mL

Second part, led by results:

IC50 (Acetyl-CoA carboxylase 1): 5.36 nM
SMILES: COc1ccccc1[C@H](Cn1c(=O)n(C2CN(C(=O)c3ccccc3)C2)c(=O)c2c(C)c(-c3ncco3)sc21)OC1CCOCC1

IC50 (Acetyl-CoA carboxylase 1): 0.95 nM
SMILES: COc1ccccc1[C@H](Cn1c(=O)n(C2CN(CC(F)(F)F)C2)c(=O)c2c(C)c(-c3ncco3)sc21)OC1CCOCC1

IC50 (Acetyl-CoA carboxylase 1): 9.47 nM
SMILES: COc1ccccc1[C@H](Cn1c(=O)n(C2CN(C(=O)N3CC(C)(O)C3)C2)c(=O)c2c(C)c(-c3ncco3)sc21)OC1CCOCC1

IC50 (Acetyl-CoA carboxylase 1): 1.1 nM
IC50 (Acetyl-CoA carboxylase 2): 9.14 nM
SMILES: COc1ccccc1[C@H](Cn1c(=O)n(C2CN(C(=O)N3CCOCC3)C2)c(=O)c2c(C)c(-c3ncco3)sc21)OC1CCOCC1

IC50 (Acetyl-CoA carboxylase 1): 1.37 nM
IC50 (Acetyl-CoA carboxylase 2): 16.5 nM
SMILES: COc1ccccc1[C@H](Cn1c(=O)n([C@H]2C[C@](C)(C(=O)O)C2)c(=O)c2c(C)c(-c3ncco3)sc21)OC1CCOCC1

IC50 (Acetyl-CoA carboxylase 1): 2.1 nM
IC50 (Acetyl-CoA carboxylase 2): 6.42 nM
SMILES: COc1ccccc1[C@H](Cn1c(=O)n(C2CN(C(=O)c3ccccn3)C2)c(=O)c2c(C)c(-c3ncco3)sc21)OC1CCOCC1

IC50 (Acetyl-CoA carboxylase 1): 52.9 nM
SMILES: COc1ccccc1[C@H](Cn1c(=O)n(-c2c(C)ccn3ccnc23)c(=O)c2c(C)c(-c3ncco3)sc21)OC1CCOCC1

IC50 (Acetyl-CoA carboxylase 1): 1.05 nM
SMILES: COc1ccccc1[C@H](Cn1c(=O)n([C@H]2C[C@](C)(C(N)=O)C2)c(=O)c2c(C)c(-c3ncco3)sc21)OC1CCOCC1

IC50 (Cytochrome P450 2C8): > 30000 nM
IC50 (Cytochrome P450 1A2): > 30000 nM
MRT last [2]: 246 min
IC50 (Acetyl-CoA carboxylase 1): 0.49 nM
IC50 (Cytochrome P450 2C19): > 30000 nM
CLint scaled [3]: 7.2 mL/min/kg
CLint scaled [4]: < 38 mL/min/kg
CLint scaled [5]: 6 mL/min/kg
clearance [6]: 33.3 mL/min/kg
CLint scaled [7]: 4.3 mL/min/kg
half-life [8]: 426 min
fraction unbound [9]: 0.014
IC50 (Cytochrome P450 2B6): > 30000 nM
IC50 (Cytochrome P450 2D6): > 30000 nM
IC50 (Acetyl-CoA carboxylase 2): 5.14 nM
MRT last [10]: 102 min
Cmax [11]: 213 ng/mL
bioavailability [13]: 51.1%
CLint scaled [14]: < 13 mL/min/kg
Tmax [15]: 6 min
AUC(0-t) [16]: 409 ng·h/mL
IC50 (Cytochrome P450 2C9): > 30000 nM
Vd [17]: 21.4 L/kg
Drug uptake [18]: Active
IC50 (Cytochrome P450 3A4 [19]): > 30000 nM
AUC(0-t) [21]: 628 ng·h/mL
Drug uptake [22]: Active
fraction unbound [23]: 0.015
IC50 (Cytochrome P450 3A4 [24]): > 30000 nM
SMILES: COc1ccccc1[C@H](Cn1c(=O)n(C(C)(C)C(=O)O)c(=O)c2c(C)c(-c3ncco3)sc21)OC1CCOCC1 [FIRSOCOSTAT]
IC50 [12]: > 30000 nM
IC50 [20]: 4.8 nM
